Positions count from the first letter of the chain named. Where two headings read alike, the source gives them in different places.
What was measured:
RET(KD: 658-1114 G810R) = biological target: T1, RET(KD: 658-1114 G810R) (Homo sapiens, UniProt P07949, G810R); assay: HiBiT-Degradation, RET G810R degradation assay (Nano-Glo HiBiT Lytic), 293T.165 cells; assay type: cell-based; settings: for Emax / DC50: 6.0 hours
T1 construct: 658-1114; expressed in transfected cells; host or cells: 293T.165 (293T cells, generated in-house)
T1 sequence (P07949 658-1114 G810R): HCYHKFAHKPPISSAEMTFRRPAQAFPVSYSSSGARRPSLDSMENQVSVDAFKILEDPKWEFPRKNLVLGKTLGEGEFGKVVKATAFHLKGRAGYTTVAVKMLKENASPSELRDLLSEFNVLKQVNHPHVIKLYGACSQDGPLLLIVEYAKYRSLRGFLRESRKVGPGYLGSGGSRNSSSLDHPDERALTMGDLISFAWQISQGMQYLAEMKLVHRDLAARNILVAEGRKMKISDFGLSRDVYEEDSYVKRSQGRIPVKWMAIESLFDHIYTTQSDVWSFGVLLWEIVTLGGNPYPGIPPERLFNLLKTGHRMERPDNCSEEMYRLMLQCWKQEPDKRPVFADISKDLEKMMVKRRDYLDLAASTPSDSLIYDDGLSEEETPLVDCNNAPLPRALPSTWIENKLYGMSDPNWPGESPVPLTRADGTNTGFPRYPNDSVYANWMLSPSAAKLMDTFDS
Procedure, shortened: (§1)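 6 h treatment, 293T.144 (WT) / 293T.165 (G810R) cells ectopically expressing HiBiT-fused RET KD; 11-pt half-log dilution, top 10 μM, n=2. Nano-Glo HiBiT lytic detection, luminescence. Output: DC50, Emax (% protein remaining).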

RET (658-1114) = biological target: T2, RET (658-1114) (Homo sapiens, UniProt P07949); assay: HiBiT-Degradation, RET wild-type degradation assay (Nano-Glo HiBiT Lytic), 293T.144 cells; assay type: cell-based; settings: for DC50 / Emax: 6.0 hours
T2 construct: 658-1114; expressed in transfected cells; host or cells: 293T.144 (293T cells, generated in-house)
T2 sequence (P07949 658-1114): T1 sequence (P07949 658-1114 G810R) with R153G
Procedure, shortened: as §1

[1] = % remaining protein, read-out: 293T.165 RET(KD: 658-1114 G810R) 6.0 hours (Emax)
[2] = half-maximal degradation concentration, read-out: 293T.165 RET(KD: 658-1114 G810R) 6.0 hours (DC50)
[3] = RET G810R, read-out: HiBiT-Degradation 293T.165 RET(KD: 658-1114 G810R) 6.0 hours (DC50)
[4] = RET G810R, read-out: HiBiT-Degradation 293T.165 RET(KD: 658-1114 G810R) 6.0 hours (Emax)
[5] = RET wild-type, read-out: HiBiT-Degradation 293T.144 RET (658-1114) 6.0 hours (DC50)
[6] = RET wild-type, read-out: HiBiT-Degradation 293T.144 RET (658-1114) 6.0 hours (Emax)
[7] = % remaining protein, read-out: 293T.144 RET (658-1114) 6.0 hours (Emax)
[8] = half-maximal degradation concentration, read-out: 293T.144 RET (658-1114) 6.0 hours (DC50)

SMILES	Emax (RET(KD: 658-1114 G810R); [1]) [%]	DC50 (RET(KD: 658-1114 G810R); [2]) [nM]	HiBiT-Degradation 293T.165 RET(KD: 658-1114 G810R) 6.0 hours (IP) [nM] (RET(KD: 658-1114 G810R); RET G810R)	DC50 (RET(KD: 658-1114 G810R); [3]) [nM]	Emax (RET(KD: 658-1114 G810R); [4]) [%]	HiBiT-Degradation 293T.144 RET (658-1114) 6.0 hours (IP) [nM] (RET (658-1114); RET wild-type)	DC50 (RET (658-1114); [5]) [nM]	Emax (RET (658-1114); [6]) [%]	293T.165 RET(KD: 658-1114 G810R) 6.0 hours (Emax) (RET(KD: 658-1114 G810R); HiBiT-Degradation)	293T.165 RET(KD: 658-1114 G810R) 6.0 hours (IP) [nM] (RET(KD: 658-1114 G810R); HiBiT-Degradation)	DC50 (RET(KD: 658-1114 G810R); HiBiT-Degradation, read-out: 293T.165 RET(KD: 658-1114 G810R) 6.0 hours (DC50)) [nM]	293T.144 RET (658-1114) 6.0 hours (IP) [nM] (RET (658-1114); HiBiT-Degradation)	DC50 (RET (658-1114); HiBiT-Degradation, read-out: 293T.144 RET (658-1114) 6.0 hours (DC50)) [nM]	Emax (RET (658-1114); HiBiT-Degradation, read-out: 293T.144 RET (658-1114) 6.0 hours (Emax)) [%]	293T.165 RET(KD: 658-1114 G810R) 6.0 hours (IP) [nM] (RET(KD: 658-1114 G810R))	293T.144 RET (658-1114) 6.0 hours (IP) [nM] (RET (658-1114))	Emax (RET (658-1114); [7]) [%]	DC50 (RET (658-1114); [8]) [nM]
CCC1(C(=O)NC(C)C)CCN(c2ccc(-c3nc(-c4cnn(C5CCN(C(=O)CC6(O)CCN(c7ccc(NC8CCC(=O)NC8=O)c(F)c7)CC6)CC5)c4)cn4ncc(C#N)c34)cn2)CC1 (centres unmarked) [Compound 69, 1-[5-[3-cyano-6-[1-[1-[2-[1-[4-[(2,6-dioxo-3-piperidyl)amino]-3-fluoro-phenyl]-4-hydroxy-4-piperidyl]acetyl]-4-piperidyl]pyrazol-4-yl]pyrazolo[1,5-a]pyrazin-4-yl]-2-pyridyl]-4-ethyl-N-isopropyl-piperidine-4-carboxamide]	< 50	< 100	++++ (< 50 nM = ++++)	< 100	< 50	++++ (< 50 nM = ++++)	< 50	< 30										
COc1ccnc(CN2C3CC2CN(c2ccc(-c4cc(-c5cnn(C6CCN(C(=O)CN7CCC(c8ccc(NC9CCC(=O)NC9=O)cc8F)CC7)CC6)c5)cn5ncc(C#N)c45)cn2)C3)c1 (centres unmarked) [Compound 71, 6-[1-[1-[2-[4-[4-[(2,6-dioxo-3-piperidyl)amino]-2-fluoro-phenyl]-1-piperidyl]acetyl]-4-piperidyl]pyrazol-4-yl]-4-[6-[6-[(4-methoxy-2-pyridyl)methyl]-3,6-diazabicyclo[3.1.1]heptan-3-yl]-3-pyridyl]pyrazolo[1,5-a]pyridine-3-carbonitrile]	< 30	< 100	++++ (< 50 nM = ++++)	< 100	< 30	++++ (< 50 nM = ++++)	< 50	< 30										
CC(C)NC(=O)C1(C)CCN(c2ccc(-c3cc(-c4ccc(N5CCN(C(=O)CN6CCC(c7ccc(OC8CCC(=O)NC8=O)cc7)CC6)CC5)cc4)cn4ncc(C#N)c34)cn2)CC1 (centres unmarked) [Compound 48, 1-[5-[3-cyano-6-[4-[4-[2-[4-[4-[(2,6-dioxo-3-piperidyl)oxy]phenyl]-1-piperidyl]acetyl]piperazin-1-yl]phenyl]pyrazolo[1,5-a]pyridin-4-yl]-2-pyridyl]-N-isopropyl-4-methyl-piperidine-4-carboxamide]	< 30	< 100							++++ (< 30% = ++++)	++++ (< 50 nM = ++++)	< 100	++++ (< 50 nM = ++++)	< 50	< 30				
CCC1(C(=O)NC2CCC2)CCN(c2ccc(-c3nc(-c4cnn([C@H]5CC[C@H](N6CCC(c7ccc8c(N9CCC(=O)NC9=O)nn(C)c8c7F)CC6)CC5)c4)cn4ncc(C#N)c34)cn2)CC1 (single isomer, unassigned) [Compound 138, 1-(5-(3-Cyano-6-(1-((1r, 4r)-4-(4-(3-(2,4-dioxotetrahydropyrimidin-1(2H)-yl)-7-fluoro-1-methyl-1H-indazol-6-yl)piperidin-1-yl)cyclohexyl)-1H-pyrazol-4-yl)pyrazolo[1,5-a]pyrazin-4-yl)pyridin-2-yl)-N-cyclobutyl-4-ethylpiperidine-4-carboxamide]	< 30	< 100													++++ (<50 nM = ++++)	++++ (<50 nM = ++++)	< 30	< 50
CC(C)CC(=O)N1CCN(c2ccc(-c3nc(-c4cnn(C5CCN(C(=O)CC6CCN(c7ccc(NC8CCC(=O)NC8=O)cc7F)CC6)CC5)c4)cn4ncc(C#N)c34)cn2)CC1 (centres unmarked) [Compound 185, 6-(1-(1-(2-(1-(4-((2,6-dioxopiperidin-3-yl)amino)-2-fluorophenyl)piperidin-4-yl)acetyl)piperidin-4-yl)-1H-pyrazol-4-yl)-4-(6-(4-(3-methylbutanoyl)piperazin-1-yl)pyridin-3-yl)pyrazolo[1,5-a]pyrazine-3-carbonitrile]	< 50	< 100													++++ (<50 nM = ++++)	++++ (<50 nM = ++++)	< 30	< 50
COc1ccc(CN2C3COCC2CN(c2ccc(-c4nc(-c5cnn([C@H]6CC[C@H](N7CCN(c8cc(OC)c(NC9CCC(=O)NC9=O)cc8F)CC7)CC6)c5)cn5ncc(C#N)c45)cn2)C3)cn1 (some centres unmarked) [Compound 165, 6-[1-[4-[4-[4-[(2,6-dioxo-3-piperidyl)amino]-2-fluoro-5-methoxy-phenyl]piperazin-1-yl]cyclohexyl]pyrazol-4-yl]-4-[6-[9-[(6-methoxy-3-pyridyl)methyl]-3-oxa-7,9-diazabicyclo[3.3.1]nonan-7-yl]-3-pyridyl]pyrazolo[1,5-a]pyrazine-3-carbonitrile]	< 30	< 100													+++ (<100 nM = +++)	++++ (<50 nM = ++++)	< 30	< 50
COc1ccc(CC2(C(=O)NC(C)C)CCN(c3ccc(-c4nc(-c5cnn([C@H]6CC[C@H](N7CCN(c8cc(OC)c(NC9CCC(=O)NC9=O)cc8F)CC7)CC6)c5)cn5ncc(C#N)c45)cn3)CC2)nc1 (some centres unmarked) [Compound 216, 1-[5-[3-cyano-6-[1-[4-[4-[4-[(2,6-dioxo-3-piperidyl)amino]-2-fluoro-5-methoxy-phenyl]piperazin-1-yl]cyclohexyl]pyrazol-4-yl]pyrazolo[1,5-a]pyrazin-4-yl]-2-pyridyl]-N-isopropyl-4-[(5-methoxy-2-pyridyl)methyl]piperidine-4-carboxamide]	< 30	< 100													+++ (<100 nM = +++)	++++ (<50 nM = ++++)	< 30	< 50
CCC1(C(=O)NC(C)C)CCN(c2ccc(-c3nc(-c4cnn(C5CCN(C(=O)CC6(O)CCN(c7ccc(N[C@@H]8CCC(=O)NC8=O)cc7F)CC6)CC5)c4)cn4ncc(C#N)c34)cn2)CC1 (single isomer, unassigned) [Compound 79]	< 30	< 50	++++ (< 50 nM = ++++)	< 50	< 30	++++ (< 50 nM = ++++)	< 50	< 30										
